# Experimental data published in patent US4714699A, “2-tolylmorpholine derivatives and pharmaceutical compositions” (Societe Anonyme Dite: Laboratoire L. Lafon, priority 1983, dated 1987).
# “Also recorded” adds a separate entry of the source.
# Tests used:
# [1] = cardiovascular study in dogs; type: in vivo
# [2] = pretoxicity (LD-O, maximum non-lethal dose); type: in vivo, male mice
# Method: (§1) In the following tests, CRL 40 875, in solution in distilled water, was administered intraperitoneally in a volume of 20 ml/kg to male mice and 5 ml/kg to male rats.
# (§2) In the following tests, CRL 40 897, in solution in distilled water (pH 4), was administered intraperitoneally in a volume of 20 ml/kg to male mice and in a volume of 5 ml/kg to male rats, the procedures being those given above for CRL 40 875.
# (§3) In the tests undertaken, CRL 40 912, in solution in distilled water (pH 4.5), was administered intraperitoneally in a volume of 20 ml/kg to male mice and in a volume of 5 ml/kg to male rats, the procedures being those given above for CRL 40 875.
# (§4) The toxicological and neuropsychopharmacological studies undertaken in accordance with the procedures described above for CRL 40 875 enabled the following observations to be made: […]
# [3] = interaction with apomorphine in rats; type: in vivo, male rats; details: i.p., 0.5 mg/kg apomorphine
# Method: as §1
# CRL 40 875 is administered to groups of 6 rats 0.5 hour before the subcutaneous injection of 0.5 mg/kg of apomorphine.
# as §2, §3
# [4] = motility reduced by hypoxic aggression; type: in vivo, male mice; details: i.p.
# Method: as §1
# Half an hour after they have received CRL 40 875, the mice (10 per dose, 20 control animals) are subjected to acute hypobaric anoxia [pressure reduction of 600 mm Hg (i.e. about 8×10^4 pascals) in 90 seconds; release of vacuum in 45 seconds] and are then placed in an actimeter, where their motility is recorded for 10 minutes.
# as §2
# [5] = action on the spontaneous motility; type: in vivo, male mice; details: mice
# Method: as §1
# Half an hour after they have received CRL 40 875, the mice (6 per dose, 12 control animals) are placed in an actimeter, where their motility is recorded for 30 minutes.
# as §2
# electric shock = type: in vivo, male mice; details: i.p., mice
# Method: as §1
# (§5) The test is performed on groups of 10 mice half an hour after the administration of CRL 40 875.
# as §2
# [6] = overall behavior and reactivities in mice; type: in vivo, male mice
# Method: as §1
# Groups of three mice are observed before and then 15 minutes, 30 minutes, 1 hour, 2 hours, 3 hours and 24 hours after the administration of CRL 40 875.
# as §2, §4
# [7] = action on the intergroup aggressiveness; type: in vivo, male mice; details: 0.5 mg/kg and 2 mg/kg i.p., mice
# Method: as §1
# After they have stayed for 3 weeks in the two halves of a cage divided by an opaque partition, groups of 3 mice receive CRL 40 875. Half an hour later, the two groups from the same cage are brought together by removal of the partition, and the number of fights which occur in 10 minutes is noted.
# as §2, §3
# traction test = type: in vivo, male mice; details: i.p., mice
# Method: as §1, §5, §2
# four plate test = type: in vivo, male mice; details: i.p., mice
# Method: as §1, §5, §2
# [8] = interaction with reserpine; type: in vivo, male mice; details: i.p., mice
# Method: as §1
# Four hours after the intraperitoneal injection of 2.5 mg/kg of reserpine, groups of 6 mice receive CRL 40 875. The effects on the temperature and ptosis are observed.
# as §2, §3
# [9] = neuropsychopharmacological study, overall findings; type: in vivo, mice, rats; details: for sedative effects: weak doses where stated
# Method: as §1, §2, §3, §4
# [10] = asphyxiant anoxia (gallamine triiodoethylate); type: in vivo, male mice; details: i.p., mice
# Method: as §1
# Groups of 20 mice receive CRL 40 875 half an hour before the intraperitoneal administration of 32 mg/kg of gallamine triidoethylate (which is a reference curarizing agent).
# as §2, §3
# α-adrenergic = α-adrenergic stimulation; details: in vivo; hydrochloride
# [11] = cardiovascular study in rats; type: in vivo; details: normally hypertensive rats
# [12] = interaction with apomorphine in mice; type: in vivo, male mice; details: mice
# Method: as §1
# Groups of 6 mice receive CRL 40 875 0.5 hour before the subcutaneous injection of 1 or 16 mg/kg of apomorphine.
# as §2, §3
# [13] = motility reduced by habituation to the enclosure; type: in vivo, male mice; details: i.p.
# Method: as §1
# After they have stayed in the actimeters for 18 hours, the mice (6 per dose, 12 control animals) receive CRL 40 875. They are immediately returned to their respective enclosures and, half an hour later, their motility is recorded for 30 minutes.
# as §2, §3
# [14] = interaction with oxotremorine; type: in vivo, male mice
# Method: as §1
# CRL 40 875 is administered to groups of 6 mice half an hour before the intraperitoneal injection of 0.5 mg/kg of oxotremorine.
# as §2, §3
# [15] = interaction with amphetamine; type: in vivo, male rats; details: i.p.; 2 mg/kg amphetamine; rats
# Method: as §1, §2, §3
# [16] = clinical trials, treatment of depressions; type: in vivo; details: man
# Text: In clinical trials, good results were obtained on man with CRL 40 875 (Example 1), CRL 40 912 (Example 2) and CRL 40 897 (Example 3) in the treatment of depressions.
# overall behavior in rats = type: in vivo, male rats; details: 32 mg/kg i.p., male rats
# Method: as §1, §4
# [17] = 64 mg/kg and 32 mg/kg i.p., mice
# [18] = 128 mg/kg i.p., groups of three mice
# [19] = anesthetized dogs, intraduodenal (CRL 40 903: then intravenous)
structure (smiles),measurement,setting,value
"Cc1ccc(C2CN(C(C)C)CCO2)cc1.Cl (centres unmarked) [CRL 40 875, 2-p-tolyl-4-isopropylmorpholine hydrochloride]",effect on blood pressure and heart rate,[1]; dogs,hypotensive and tachycardiac agent
same,mortality,[2]; [17],no mortality
same,signs of toxicity,[2]; [17],abdominal cramp and trembling
same,mortality,[2]; [18],death (of the 3 animals in the group)
same,signs of toxicity,[2]; [18],thick saliva and convulsions
same,time to death,"[2]; 128 mg/kg i.p., mice",10 min
same,effect on stereotypies induced by apomorphine,[3],does not substantially impair the stereotype behavior induced by apomorphine in rats
same,motor recovery in mice after reduced-pressure enclosure,[4],does not cause an improvement in the motor recovery
same,hypomotility,[5]; 8 and 32 mg/kg i.p.,very significant
same,minimal effective dose,"[5]; Mus musculus, ip, read-out: dose as from which motility is reduced",≥ 2 mg/kg
same,effect on electric shock,electric shock,does not modify the convulsant effects of electric shock
same,duration of hypothermia,"[6]; 2 mg/kg i.p., mice",0.5 h
same,hypothermia (temperature change),"[6]; 2 mg/kg i.p., mice",-1.5 °C
same,duration of hypothermia,"[6]; 8 mg/kg i.p., mice",1 h
same,duration of piloerection,"[6]; 8 mg/kg i.p., mice",3 h
same,hypothermia (temperature change),"[6]; 8 mg/kg i.p., mice",-3.9 °C
same,"piloerection, animals affected","[6]; 8 mg/kg i.p., mice",2/3
same,duration of mydriasis,"[6]; 32 mg/kg i.p., mice",0.5 h
same,duration of reduction in the reactivity to touch and muscular tonus,"[6]; 32 mg/kg i.p., mice",2 h
same,hypothermia (temperature change),"[6]; 32 mg/kg i.p., mice",-4.1 °C
same,mydriasis,"[6]; 32 mg/kg i.p., mice",moderate mydriasis
same,"piloerection, animals affected","[6]; 32 mg/kg i.p., mice",2 out of 3
same,effect on number of fights,[7],suppression of the fights
same,effect on the motor activity,[7],only a moderate effect on the motor activity
same,major motor incapacity,traction test,does not cause major motor incapacity
same,number of punished passes,four plate test,does not cause an increase in the number of punished passes
same,effect on the ptosis induced by reserpine,[8],without modifying the ptosis induced by reserpine
same,effect on the hypothermia induced by reserpine,[8]; strong dose,aggravates the hypothermia induced by reserpine
same,variation of sedative effects with dose,[9]; in vivo,"increase continuously with the dose administered, up to a maximum value, and then decrease continuously and progressively as the dose increases"
same,antidepressant effects,"[9]; strong doses, hydrochloride",antidepressant effects (antagonism of the hypothermia induced by apomorphine and oxotremorine); also recorded: antidepressants at strong doses
same,sedative effects,[9]; hydrochloride,"sedative effects (hyporeactivity, hypothermia, hypomotility, significant reduction of aggressiveness, delayed onset of asphyxiant convulsions); also recorded: sedative effects (hypomotility, hypothermia, reduction of intergroup aggressiveness"
same,time taken for convulsions and death to occur following asphyxiant anoxia,[10],delays the time taken for convulsions and death to occur
same,α-adrenergic stimulant effect,α-adrenergic,"signs of peripheral α-adrenergic stimulation (salivation, piloerection, trembling); also recorded: stimulant effects, especially of the α-adrenergic type"
same,cardiovascular parameters,[11],does not modify the cardiovascular parameters
same,intrinsic hypothermic effect,[12]; i.p.,exerts an intrinsic hypothermic effect
same,effect on righting behavior and stereotypies,"[12]; i.p., apomorphine",does not modify the righting behavior and the stereotypies
same,effect on the hypothermia induced by apomorphine,"[12]; strong dose (32 mg/kg) i.p., 16 mg/kg apomorphine",partially opposes the hypothermia induced by 16 mg/kg of apomorphine
same,resumption in the activity of mice accustomed to their enclosure,[13],does not cause a resumption in the activity of mice accustomed to their enclosure
same,effect on peripheral cholinergic symptoms (defecation) after oxotremorine,"[14]; 0.5, 2, 8 and 32 mg/kg i.p., mice",increases the proportion of mice which exhibit defecation
same,effect on the trembling due to oxotremorine,"[14]; 8 and 32 mg/kg i.p., mice",seems to increase the duration of the trembling due to oxotremorine
same,hypothermic effect,"[14]; i.p., mice",exerts a hypothermic effect
same,effect on the temperature drop caused by oxotremorine,"[14]; strong dose, i.p.",partially opposes the temperature drop caused by oxotremorine
same,effect on stereotypies induced by amphetamine,[15],stereotypies induced by amphetamine are not modified
same,results in the treatment of depressions,[16],good results
"Cc1ccc(C2CN(C(C)(C)C)CCO2)cc1.Cl (centres unmarked) [CRL 40 903, 2-p-tolyl-4-tert.-butylmorpholine hydrochloride]",maximum increase in femoral flow rate,"[1]; 20 mg/kg, anesthetized dogs, intraduodenal then intravenous",+150%
same,minimal effective dose,"[1]; Canis lupus familiaris, anesthetized dogs, intraduodenal (CRL 40 903: then intravenous), read-out: dose as from which femoral flow rate is increased",≥ 2.5 mg/kg
same,dose as from which tachycardia appears,[1]; [19],≥ 1 mg/kg
same,effect on blood pressure,[1]; [19],no action on the blood pressure
same,effect on the hypertension induced by noradrenaline,[1]; [19],does not modify the hypertension induced by noradrenaline
same,effect on the hypotension / effects of isoprenaline,[1]; [19],reduces the hypotension induced by isoprenaline
same,effect of propanolol on induced vasodilation,"[1]; anesthetized dogs, intraduodenal then intravenous",not completely suppressed by propanolol
same,vasodilator property,"[1]; dog, in vivo",particularly interesting as vasodilators
same,LD-O (maximum non-lethal dose),"[2]; intraperitoneally, male mice",greater than 128 mg/kg
same,sedation and depressed respiration,overall behavior in rats,induce sedation and depressed respiration
same,sedation and depressed respiration,"[6]; 64 mg/kg and 128 mg/kg i.p., male mice",induce sedation and depressed respiration
same,sedative effects,[9],sedative effects
